From the supplement of paper PMC10307832

What was measured:
Assay in all cases: relative viability (nuclei count vs DMSO), 5 days (fraction); higher = more cells survive
Bleomycin + Linsitinib = compound: CC1=C(N=C(N=C1N)[C@H](CC(=O)N)NC[C@@H](C(=O)N)N)C(=O)N[C@@H]([C@H](C2=CN=CN2)OC3C(C(C(C(O3)CO)O)O)OC4C(C(C(C(O4)CO)O)OC(=O)N)O)C(=O)N[C@H](C)[C@H]([C@H](C)C(=O)N[C@@H]([C@@H](C)O)C(=O)NCCC5=NC(=CS5)C6=NC(=CS6)C(=O)NCCC[S+](C)C)O [Bleomycin] + C[C@]1(O)C[C@@H](c2nc(-c3ccc4ccc(-c5ccccc5)nc4c3)c3c(N)nccn32)C1 [Linsitinib] (partner 1 µM); details: main component drawn
Outline: (§1)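 Relative viability equals treated-well nuclei counts divided by vehicle-well nuclei counts. Counts came from 4× images of lung cancer cell lines grown in 1536-well plates for 5 days after pin-tool dosing on the day after seeding. Dosing used one drug alone or a fixed anchor-drug dose plus five library-drug doses (not always all listed) in √10 steps, and values are medians of duplicate plates.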

Etoposide + Palbociclib = compound: COc1cc([C@@H]2c3cc4c(cc3[C@@H](O[C@@H]3O[C@@H]5CO[C@@H](C)O[C@H]5[C@H](O)[C@H]3O)[C@H]3COC(=O)[C@H]23)OCO4)cc(OC)c1O [Etoposide] + CC(=O)c1c(C)c2cnc(Nc3ccc(N4CCNCC4)cn3)nc2n(C2CCCC2)c1=O [Palbociclib] (partner 0.5 µM)
Outline: as §1

Etoposide + Decitabine = compound: COc1cc([C@@H]2c3cc4c(cc3[C@@H](O[C@@H]3O[C@@H]5CO[C@@H](C)O[C@H]5[C@H](O)[C@H]3O)[C@H]3COC(=O)[C@H]23)OCO4)cc(OC)c1O [Etoposide] + Nc1ncn([C@H]2C[C@H](O)[C@@H](CO)O2)c(=O)n1 [Decitabine] (partner 2 µM)
Outline: as §1

Bleomycin + Crizotinib = compound: CC1=C(N=C(N=C1N)[C@H](CC(=O)N)NC[C@@H](C(=O)N)N)C(=O)N[C@@H]([C@H](C2=CN=CN2)OC3C(C(C(C(O3)CO)O)O)OC4C(C(C(C(O4)CO)O)OC(=O)N)O)C(=O)N[C@H](C)[C@H]([C@H](C)C(=O)N[C@@H]([C@@H](C)O)C(=O)NCCC5=NC(=CS5)C6=NC(=CS6)C(=O)NCCC[S+](C)C)O [Bleomycin] + C[C@@H](Oc1cc(-c2cnn(C3CCNCC3)c2)cnc1N)c1c(Cl)ccc(F)c1Cl [Crizotinib] (partner 1 µM); details: main component drawn
Outline: as §1

Cell Line	relative viability (Bleomycin + Linsitinib; first compound 0.01 µM)	relative viability (Bleomycin + Linsitinib; first compound 0.03162 µM)	relative viability (Bleomycin + Linsitinib; first compound 0.1 µM)	relative viability (Bleomycin + Linsitinib; first compound 0.3162 µM)	relative viability (Bleomycin + Linsitinib; first compound 1 µM)	relative viability (Etoposide + Palbociclib; first compound 0.01 µM)	relative viability (Etoposide + Palbociclib; first compound 0.03162 µM)	relative viability (Etoposide + Palbociclib; first compound 0.1 µM)	relative viability (Etoposide + Palbociclib; first compound 0.3162 µM)	relative viability (Etoposide + Palbociclib; first compound 1 µM)	relative viability (Etoposide + Decitabine; first compound 0.01 µM)	relative viability (Etoposide + Decitabine; first compound 0.03162 µM)	relative viability (Etoposide + Decitabine; first compound 0.1 µM)	relative viability (Etoposide + Decitabine; first compound 0.3162 µM)	relative viability (Etoposide + Decitabine; first compound 1 µM)	relative viability (Bleomycin + Crizotinib; first compound 0.01 µM)	relative viability (Bleomycin + Crizotinib; first compound 0.03162 µM)	relative viability (Bleomycin + Crizotinib; first compound 0.1 µM)	relative viability (Bleomycin + Crizotinib; first compound 0.3162 µM)	relative viability (Bleomycin + Crizotinib; first compound 1 µM)
NCI-H661	0.563	0.423	0.312	0.221	0.217	0.415	0.468	0.332	0.384	0.352	0.558	0.671	0.477	0.46	0.343	0.82	0.943	0.745	0.508	0.425
NCI-H727	0.293	0.251	0.33	0.183	0.34	0.67	0.675	0.581	0.689	0.767	1.11	0.985	0.681	0.796	0.63	0.763	0.731	0.634	0.411	0.489
NCI-H838	0.652	0.314	0.191	0.189	0.159	0.172	0.238	0.169	0.226	0.244	0.445	0.487	0.49	0.367	0.248	0.437	0.32	0.184	0.176	0.172
NCI-H1355	0.794	0.838	0.783	0.463	0.287	0.423	0.473	0.275	0.355	0.281	0.362	0.384	0.363	0.279	0.287	0.948	1.03	0.926	0.538	0.298
NCI-H1437	0.88	0.936	0.85	0.417	0.357	0.278	0.352	0.279	0.293	0.269	0.537	0.632	0.568	0.441	0.332	0.803	0.811	0.736	0.476	0.382
NCI-H1651	0.862	0.766	0.596	0.27	0.152	0.512	0.515	0.414	0.359	0.178	0.612	0.688	0.442	0.241	0.128	0.787	0.772	0.754	0.448	0.358
